# Patent US8003689B2, “Metabolites of selective androgen receptor modulators and methods of use thereof” (GTx, Inc., priority 2008, dated 2011)
# Assays:
# [1] = Permeability and efflux potential across Caco-2 monolayers; design: Papp A→B / Papp B→A: dose or concentration left out as unconfirmed; details: human
# Description: (§1) Permeability (and efflux potential) was measured in the Apical (pH 6.5) to Basolateral (pH 7.4) and Basolateral (pH 7.4) to Apical (pH 6.5) directions across polarized, Caco-2 epithelial monolayers. Compound stocks were tested at a final concentration of […]. The concentration of drug in the receiver well was measured by LC/MS/MS using a standard curve.
# [2] = system: Caco-2 epithelial monolayers; test: as above; design: Papp A→B / Papp B→A: dose or concentration left out as unconfirmed
# Description: as §1
# [3] = Metabolic stability in human liver microsomes; format: in vitro ADME
# Description: Human liver microsomes and hepatocytes were utilized at a final concentration of 1.0 mg/ml and 1×10^6 cells/ml, respectively. Duplicate wells were used for each time point (0, 5, 10, 30, and 60 minutes). The concentrations of parent drug remaining in each well were analyzed on an MDS/Sciex API4000 Q Trap system with electrospray ionization (ESI) in the positive and/or negative SIM mode, depending on the test compound(s). […] For hepatocyte assays, cell viability was also monitored at each time point (from replicate wells) using the Trypan Blue exclusion method.
# [4] = Metabolic stability in primary monkey hepatocytes; format: in vitro ADME
# [5] = system: primary monkey hepatocytes; test: Metabolic stability in primary monkey hepatocytes; format: in vitro ADME
# [6] = system: CYP2C9; test: CYP2C9 induction in primary human hepatocytes; format: in vitro ADME
# Description: (§2) Cytochrome P450 enzyme inhibition was measured using human, cDNA-expressed CYP3A4, 2D6, 2C19, 2C9, and 1A2 enzymes. Analogues of the model substrate coumarin were utilized for each isozyme, at a concentration near the apparent Km of this substrate. Compound stocks were tested using an 8-point dose-response curve in duplicate (ranging from […]). […] For microsome-based CYP inhibition measurements, all substrates were utilized at the approximate Km value. […] Duplicate wells in the induction assay were used to measure both functionality and expression of the CYP enzyme.
# [7] = system: CYP3A4; test: CYP3A4 induction in primary human hepatocytes; format: in vitro ADME
# Description: as §2
# [8] = Phase I microsome reactions of Compound II, dog; format: in vitro ADME; details: Dog liver microsomes; not absolutely quantitative (n = 2)
# Description: (§3) Test compound stock solutions were prepared in acetonitrile at 10 mM, 200 times (200×) the final concentration. The stock solutions were added in incubation mixtures to obtain the final drug concentration of 50 μM, containing 0.5% acetonitrile. A concentration of 50 μM was utilized to allow for detection of possible minor metabolites (select studies were run at 10 μM for confirmatory purposes). Human, monkey, dog, rat, mouse microsomes were all utilized at a final concentration of 1.0 mg/ml. Duplicate wells were used for each time point (0 and 120 minutes). Incubation was conducted at 37° C. in a shaking water bath. The final volume for each reaction was 200 μl, composed of: 66 μl of 0.2 M KPO4 buffer, (pH 7.4); 73 μl of H2O, 10 μl of 20 mg/ml microsome stock; 1.0 μl of 10 mM compound stock, and 50 μl of NRS solution. The NRS solution consisting of glucose-6-phosphate dehydrogenase, NADP+, MgCl2, and glucose-6-phosphate, was prepared as described in manufacturer's instructions. […]
# (§4) The mass spectrometers were operated in EMS mode in order to detect all possible metabolites. […] Intensity of putative metabolite was semi-quantitated using the peak area of the metabolites in XIC, which was subtracted with the peak area of time zero control at the same retention time with the metabolites.
# [9] = Phase I microsome reactions of Compound II, mouse; format: in vitro ADME; details: Mouse liver microsomes; not absolutely quantitative (n = 2)
# Description: as §3, §4
# [10] = Phase I microsome reactions of Compound II, monkey; format: in vitro ADME; details: Monkey liver microsomes; not absolutely quantitative (n = 2)
# Description: as §3, §4
# [11] = Phase I and II microsome reactions (+UDPGA) of Compound II, rat; format: in vitro ADME; details: Rat liver microsomes (+UDPGA)
# Description: (§5) For microsome reactions performed under conditions allowing for both phase I and II metabolism, the initial procedure and reaction conditions were followed similarly as described above. Additional cofactors were also included in each reaction to maximize the potential for in vitro glucuronidation to occur. UDPGA was added at a final concentration of 5.0 mM. Saccharolactone (β-glucuronidase inhibitor) and alamethicin (pore forming peptide) were added to each reaction at a final concentration of 5.0 mM and 50 μg/ml, respectively.
# (§6) Each 200 μl microsomal reaction solution was composed of: 66 μl of 0.2 M KPO4 buffer, (pH 7.4); 50 μl of NRS solution (as described above); 66 μl of UDPGA (15 mM stock); 5.0 μl of saccharolactone (200 mM stock); 0.5 μl of alamethicin (20 mg/ml); 0.6 μl of MgCl2 (1 M stock); and 10 μl of microsomes (20 mg/ml stock).
# (§7) At the end of incubation, 100 μl of reaction solution under incubation was transferred to a sample well containing 100 μl of ice cold acetonitrile to quench the reaction. […]
# as §4
# [12] = Phase I microsome reactions of Compound II, human; format: in vitro ADME; details: Human liver microsomes; not absolutely quantitative (n = 2)
# Description: as §3, §4
# [13] = Phase I and II microsome reactions (+UDPGA) of Compound II, monkey; format: in vitro ADME; details: Monkey liver microsomes (+UDPGA)
# Description: as §5, §6, §7, §4
# [14] = Phase I and II microsome reactions (+UDPGA) of Compound II, dog; format: in vitro ADME; details: Dog liver microsomes (+UDPGA)
# Description: as §5, §6, §7, §4
# [15] = system: dog hepatocytes; test: Hepatocyte assay of Compound II, dog; format: in vitro ADME
# Description: (§8) The stock solutions (10 mM in acetonitrile) for the test compounds were diluted in the incubation media to a working concentration of 100 μM (2×). Thawing frozen hepatocytes was followed by performing Percoll purification as described in manufacturer's manual. Primary hepatocytes were resuspended in incubation media and viability was measured using trypan blue exclusion method. The initial viability score was registered as ‘T0’ (time point of 0 minute), and viability was required to be at least ˜70% at this point for the experiment to continue. Cells were washed a second time (60 g for 5 minutes) with supplemented DMEM and the final concentration was adjusted to […] (2×). Samples were set up in 48-well plates, using 2 wells per each time point. A trypan blue well was also set up for viability analysis at the end of study (T=120 min). 100 μl of the 2× drug solution was combined with 100 μl of the 2× hepatocyte suspension. Final concentration was […] (200,000 cells/well) and 50 μM compound. Final concentration of acetonitrile was 0.5%. […]
# as §4
# [16] = system: Rat Hepatocytes; test: Hepatocyte assay of Compound II, rat; format: in vitro ADME
# Description: as §8, §4
# [17] = Phase I and II microsome reactions (+UDPGA) of Compound II, human; format: in vitro ADME; details: Human liver microsomes (+UDPGA)
# Description: as §5, §6, §7, §4
# [18] = Phase I microsome reactions of Compound II, rat; format: in vitro ADME; details: Rat liver microsomes; not absolutely quantitative (n = 2)
# Description: as §3, §4
# [19] = system: human hepatocytes; test: Hepatocyte assay of Compound II, human; format: in vitro ADME
# Description: as §8, §4
# [20] = Phase I and II microsome reactions (+UDPGA) of Compound II, mouse; format: in vitro ADME; details: Mouse liver microsomes (+UDPGA)
# Description: as §5, §6, §7, §4
# [21] = system: monkey hepatocytes; test: Hepatocyte assay of Compound II, monkey; format: in vitro ADME
# Description: as §8, §4
# [22] = system: mouse hepatocytes; test: Hepatocyte assay of Compound II, mouse; format: in vitro ADME
# Description: as §8, §4
# [23] = system: Rat Hepatocytes; test: In vitro metabolites of Compound I in rat hepatocytes; format: in vitro ADME; details: metabolite formed from Compound I
# [24] = In vitro metabolites of Compound I in rat liver microsomes; format: in vitro ADME; details: metabolite formed from Compound I
# [25] = Human Liver Microsomes, Phase I
# [26] = Human Liver Microsomes, Phase I + II
smiles,measurement,setting,value
"C[C@](O)(COc1ccc(C#N)cc1)C(=O)Nc1ccc(C#N)c(C(F)(F)F)c1 [Compound I, (S)—N-(4-cyano-3-(trifluoromethyl)phenyl)-3-(4-cyanophenoxy)-2-hydroxy-2-methylpropanamide]",Papp B→A,[1]; Caco-2,29 ×10⁻⁶ cm/s
same,Papp A→B,"[1]; Caco-2, Permeability Classification, classified from Papp (A-B)",> 10 ×10⁻⁶ cm/s
same,efflux potential,[2]; Caco-2 permeability assays,low
same,Permeability Classification,[2]; classified from Papp (A-B),high
same,Half-Life Phase I,[3]; [25],Stable
same,microsomal CLint,[3]; [25],< 1000 µL/min/mg
same,CLint Phase I + II,[3]; [26],<1000 µL/min/mg
same,Half-Life Phase I + II,[3]; [26],Stable
same,in vitro half-life (stability in words),"[3]; microsomal and hepatocyte assays, both phase I and phase I/II metabolic conditions",mostly stable
same,CLint scaled,[4],< 1 mL/min/kg
same,Half-Life,[5],Stable
same,induction of CYP2C9 activity,[6],does not induce
same,induction of CYP3A4 activity,[7],does not induce
N#Cc1ccc(N)cc1Cl [Compound 151],Relative Percent of Extracted Ion Chromatogram (XIC) for Phase I metabolites of Compound II,[8],6%
same,Relative Percent of Extracted Ion Chromatogram (XIC) for Phase I metabolites of Compound II,[9],4%
same,Relative Percent of Extracted Ion Chromatogram (XIC) for Phase I metabolites of Compound II,[10],4%
same,Relative Percent of XIC for Phase I and Glucuronide Metabolites of Compound II,[11],1.4%
same,Relative Percent of Extracted Ion Chromatogram (XIC) for Phase I metabolites of Compound II,[12],3%
same,Relative Percent of XIC for Phase I and Glucuronide Metabolites of Compound II,[13],1.6%
same,Relative Percent of XIC for Phase I and Glucuronide Metabolites of Compound II,[14],2.9%
same,Relative Percent of XIC for Phase I and II Metabolites of Compound II,[15],4.7%
same,Relative Percent of XIC for Phase I and II Metabolites of Compound II,[16],0.9%
same,Relative Percent of XIC for Phase I and Glucuronide Metabolites of Compound II,[17],0.8%
same,Relative Percent of Extracted Ion Chromatogram (XIC) for Phase I metabolites of Compound II,[18],4%
same,Relative Percent of XIC for Phase I and II Metabolites of Compound II,[19],0.5%
same,Relative Percent of XIC for Phase I and Glucuronide Metabolites of Compound II,[20],1.1%
same,Relative Percent of XIC for Phase I and II Metabolites of Compound II,[21],2.2%
same,Relative Percent of XIC for Phase I and II Metabolites of Compound II,[22],0.8%
C[C@@](COc1ccc(C#N)cc1)(OC1OC(C(=O)O)C(O)C(O)C1O)C(=O)Nc1ccc(C#N)c(C(F)(F)F)c1 (stereo partly drawn) [Compound 564],relative abundance of in vitro metabolites of Compound I (m/z 388),[23],0.37
same,relative abundance of in vitro metabolites of Compound I (m/z 388),[24],1.92
